Values of other authors, collected in US8586054B2, “Method for modulating, treating and/or preventing metabolic syndrome using MAS-G-protein-coupled receptor agonists” (Max-Delbruck-Centrum fur Molekulare Medizin, priority 2006, dated 2013).

Experiments:
[1] = HOPE study; versus placebo
[2] = LIFE study; compared with atenolol
[3] = VALUE study; hypertensive patients, valsartan versus amlodipine

SMILES: CCOC(=O)[C@H](CCc1ccccc1)N[C@@H](C)C(=O)N1[C@H](C(=O)O)C[C@@H]2CCC[C@@H]21 [ramipril]
- incidence of diabetes lower than in the group that received placebo [1]: 34%

SMILES: CCCCc1nc(Cl)c(CO)n1Cc1ccc(-c2ccccc2-c2nn[nH]n2)cc1 [Losartan]
- reduction in the appearance of new cases of diabetes [2]: 25%

SMILES: CCCCC(=O)N(Cc1ccc(-c2ccccc2-c2nnn[nH]2)cc1)[C@H](C(=O)O)C(C)C [valsartan]
- reduction in new cases of diabetes [3]: 23%
